Each block holds one molecule with its values, some of them ahead of it. * marks the point of attachment. FITC = O=C1OC2(c3ccc(O)cc3Oc3cc(O)ccc32)c2ccc(NC(=S)*)cc21
Experiments:
MFN2 HR2 = biological target: T1, MFN2 HR2 (Homo sapiens, UniProt O95140); experiment: HR1 peptide-HR2 target binding assay; settings: FITC minipeptide 374-384 at HR2 binding site
T1 construct: host or cells: synthetic peptide (note in the listing); immobilised on Ni-NTA resin
T1 sequence (O95140 with tags, fused parts or gaps limits assumed): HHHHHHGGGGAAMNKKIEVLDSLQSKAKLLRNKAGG
Description: The Mfn-derived fusion-promoting and -inhibiting mini-peptides (simulated to obtain the chemical Mfn agonists in TABLE 1 and TABLE 2) were modified from amino acid heptad repeats (HR) in the HR1 domain and predicted to interact with their counterparts in the carboxyl terminus HR2 domain within the Mfn stalk region (see e.g., FIG. 1, top panel). A high-throughput binding assay was designed whereby the target HR2 peptide sequences, modified to include amino terminal 6×His tags and Gly linkers, were bonded to Ni-chelate resin (20 μg/ml) and used as immobilized “receptor” for amino-FITC-tagged Mfn2 374-384 (agonist ligand) in which the Ser analogous to Ser378 was replaced with Asp to confer the negative charge essential for activity. For antagonist studies the ligand was amino-FITC-tagged Mfn2 406-418. The FITC peptide ligands are suspended at 1 mM in 30% DMSO, 70% water (to minimize spontaneous aggregation) and diluted into binding buffer (de-ionized water) to a final concentration of 25 μM in the presence or absence of competing compound. Dose-dependent loss of resin-bound FITC signal (485 nm excitation/538 nm emission) measured in a 96 well spectrofluorometer represents binding of compound to its HR2 target (see e.g., FIG. 10, FIG. 11). Either the ligand peptide or the receptor peptide can be modified to represent mutations, variations, or posttranslational modifications of Mfn2. […]
Target HR2 peptide sequence modified to include amino terminal 6×His tags and Gly linkers, were bonded to Ni-NTA resin (4.4 μg/ml) (Quiagen) and used as immobilized “receptor” for amino-FITC-tagged Mfn2 374-384 (ligand) in which the Ser analogous to Ser378 was replaced with Asp to confer the negative charge essential for activity. […] Resin-bound FITC signal (485 nm excitation/538 nm emission) measured in a 96 well spectrofluorometer (Spectramax M5e, Molecular Devices) represented binding to HR2 target. Competition binding isotherms were plotted and IC50 values calculated using Prism 7 (GraphPad).

Mfn2 null MEFs = experiment: Mitochondrial elongation (aspect ratio) fusogenicity assay; assay type: cell-based, mouse; design: % long compare to B: dose or concentration left out as unconfirmed; settings: for Fusogenic activity: mitochondrial elongation / fusion; for % long compare to B: mitochondrial elongation relative to Cpd B (B01 = 100), Mfn2 null MEFs, compound overnight as printed (FIG. 48)
[1] = test system: Mfn1/Mfn2 double null MEFs; experiment: Mitochondrial elongation in Mfn1/Mfn2 double null MEFs; assay type: cell-based, mouse
Description: A cultured murine embryonic fibroblast assay system was used in which mitochondrial elongation (an increase in aspect ratio) reflects enhanced mitochondrial fusion.

[2] = test system: MFN2 Asp^378 and Ala^378 mutants; experiment: Mitochondrial fusion with MFN2 Ser378 mutants (Asp378, Ala378); assay type: cell-based, human
[3] = Human liver microsome stability assay; assay type: in vitro ADME; settings: human liver microsomes (FIG. 49)
Method: FIG. 49 is a series of structures and a graph showing dose-response and human liver microsomal stability data for fusogenic compounds from FIG. 22. […] T1/2 values are from human liver microsome stability assay.
(§1) Plasma protein binding was measured using equilibrium dialysis; % bound=(1-[free compound in dialysate]/[total compound in retentate])×100. Plasma stability of […] compound in clarified freeze-thawed plasma was assessed by LC-MS/MS of supernatants after protein precipitation; 120 min data are reported for studies including 0, 10, 30, 60, and 120 min. Microsome stability of […] compound in liver microsomes (0.5 mg/ml) after 0, 5, 10, 20, 30, 60 min. incubation was assessed by LC/MS/MS of reaction extracts.

[4] = In vivo pharmacokinetics in mice; settings: mouse, 1 mg/kg IM
Method: (A) Three mice each were administered 1 mg/kg agonist IV, IP, or IM. Graphs are mean plasma concentration for each administration route. (B) Results for individual mice were administered 1 mg/kg indicated agonist IM.

[5] = Parallel artificial membrane permeability assay (PAMPA); assay type: in vitro ADME
P-gp/MDR1 = P-gp/MDR1 (Homo sapiens, UniProt P08183); experiment: P-gp/MDR1 transport; assay type: in vitro ADME
[6] = Plasma protein binding (equilibrium dialysis); assay type: in vitro ADME
Method: as §1

[7] = Liver microsome stability; assay type: in vitro ADME
Method: as §1

P-gp/MDR1, sequence (P08183 whole entry): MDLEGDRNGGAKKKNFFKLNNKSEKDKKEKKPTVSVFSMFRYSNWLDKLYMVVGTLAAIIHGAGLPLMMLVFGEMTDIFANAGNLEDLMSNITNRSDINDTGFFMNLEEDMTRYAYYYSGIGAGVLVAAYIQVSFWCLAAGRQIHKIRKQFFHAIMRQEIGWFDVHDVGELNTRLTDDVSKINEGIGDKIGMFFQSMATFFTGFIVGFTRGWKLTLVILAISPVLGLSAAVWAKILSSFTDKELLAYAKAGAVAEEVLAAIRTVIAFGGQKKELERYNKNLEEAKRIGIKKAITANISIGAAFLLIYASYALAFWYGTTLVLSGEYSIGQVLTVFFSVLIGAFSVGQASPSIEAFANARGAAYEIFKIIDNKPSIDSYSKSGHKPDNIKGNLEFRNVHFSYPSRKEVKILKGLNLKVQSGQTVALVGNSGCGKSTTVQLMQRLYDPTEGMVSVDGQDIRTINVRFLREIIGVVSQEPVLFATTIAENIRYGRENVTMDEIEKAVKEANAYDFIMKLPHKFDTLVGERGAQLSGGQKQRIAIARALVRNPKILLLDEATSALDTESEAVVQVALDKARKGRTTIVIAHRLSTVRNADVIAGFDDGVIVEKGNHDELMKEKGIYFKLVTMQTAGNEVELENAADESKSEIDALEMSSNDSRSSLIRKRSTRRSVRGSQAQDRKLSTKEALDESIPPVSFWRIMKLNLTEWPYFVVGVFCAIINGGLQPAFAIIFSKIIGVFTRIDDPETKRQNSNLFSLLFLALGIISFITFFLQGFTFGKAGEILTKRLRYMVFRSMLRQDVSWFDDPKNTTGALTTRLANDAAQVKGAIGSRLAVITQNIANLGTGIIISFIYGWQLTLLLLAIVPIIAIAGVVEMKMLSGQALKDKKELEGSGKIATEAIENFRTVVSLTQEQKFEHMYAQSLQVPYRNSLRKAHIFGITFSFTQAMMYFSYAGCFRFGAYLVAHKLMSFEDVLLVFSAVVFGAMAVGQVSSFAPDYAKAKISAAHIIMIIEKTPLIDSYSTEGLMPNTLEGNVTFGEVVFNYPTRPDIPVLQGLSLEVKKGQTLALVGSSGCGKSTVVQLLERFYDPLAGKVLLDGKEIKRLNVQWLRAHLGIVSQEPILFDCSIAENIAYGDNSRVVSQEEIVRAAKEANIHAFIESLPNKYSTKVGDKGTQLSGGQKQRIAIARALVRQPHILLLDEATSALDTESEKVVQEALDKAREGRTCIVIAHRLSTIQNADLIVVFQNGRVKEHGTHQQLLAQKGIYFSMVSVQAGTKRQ

Molecule: CC1CCCCC1NC(=O)NCCSCc1ccccc1 (stereo not drawn) [compound A, 1-[2-(benzylsulfanyl)ethyl]-3-(2-methylcyclohexyl)urea]
EC50 (Mfn2 null MEFs; Mus musculus, increase in mitochondrial aspect ratio): 100 to 200 nM | Fusogenic activity (Mfn2 null MEFs): induced mitochondrial elongation | Mitochondrial elongation in absence of both mitofusins [1]: did not occur in the absence of both of their mitofusin targets | Selectivity of fusogenic effect for phosphomimic Asp378 vs nonphosphorylatable Ala378 MFN2 [2]: specific for the Asp^378 mutant of MFN2

Molecule: CCn1c(SCC(=O)Nc2sc3c(c2C(N)=O)CCC3)nnc1C1CC1 [1-G11, 2-{2-[(5-cyclopropyl-4-ethyl-4H-1,2,4-triazol-3-yl)sulfanyl]acetamido}-4H,5H,6H-cyclopenta[b]thiophene-3-carboxamide]
Resistance to liver microsomal degradation vs Cpd B [3]: greater resistance to liver microsomal degradation | Fusogenic activity (Mfn2 null MEFs): more potent | % long compare to B (Mfn2 null MEFs): 99%

Molecule: Cn1c(SCC(=O)Nc2sc3c(c2C(N)=O)CCC3)nnc1-c1ccccc1 [1-B1, 2-{2-[(4-methyl-5-phenyl-4H-1,2,4-triazol-3-yl]sulfanyl]acetamido}-4H,5H,6H-cyclopenta[b]thiophene-3-carboxamide]
Resistance to liver microsomal degradation vs Cpd B [3]: greater resistance to liver microsomal degradation | Fusogenic activity (Mfn2 null MEFs): more potent | % long compare to B (Mfn2 null MEFs): 107%

Further lines, with some results ahead:

Binding to / competition at HR2 target (MFN2 HR2): did not
Molecule: Ser^378 minipeptide: "(NH3) FITC-GGGG-AVRGIMDSLHMAAR-GG (COOH) (FITC labeled Ser peptide) (SEQ ID NO: 26)" ({FITC}-GGGGAVRGIMDSLHMAARGG-OH)

Binding to / competition at HR2 target (MFN2 HR2): did not
Molecule: Ala^378 minipeptide: "(NH3) FITC-GGGG-AVRGIMDALHMAAR-GG (COOH) (FITC labeled Ala peptide) (SEQ ID NO: 28)" ({FITC}-GGGGAVRGIMDALHMAARGG-OH)

total plasma drug concentration 2 hours after IM administration [4]: undetectable | Passive diffusion across lipid-infused artificial membrane (PAMPA, words) [5]: excellent passive diffusion | P-gp mediated transport (P-gp/MDR1): actively transported by P-gp/MDR1
Molecule: CC1CCCCC1NC(=O)NCCCc1nnc(C2CC2)n1-c1ccccc1 (stereo not drawn) [Regeneurin-C, 1-(3-(5-cyclopropyl-4-phenyl-4H-1,2,4-triazol-3-yl)propyl)-3-(2-methylcyclohexyl)urea]

Plasma protein binding [6]: low plasma protein binding | Liver microsome stability [7]: stability in the liver microsome assay
Molecule: Cn1c(CCCNC(=O)NC2CCOCC2)nnc1C1CC1 [Mitolityn-6, 1-(3-(5-cyclopropyl-4-methyl-4H-1,2,4-triazol-3-yl)propyl)-3-(tetrahydro-2H-pyran-4-yl)urea]
Fusogenic activity (Mfn2 null MEFs): highest potency

From patent publication US10844023B2 (Washington University, priority 2017, dated 2020)
